Test results taken from article PMC6753678, “Fueling Open Innovation for Malaria Transmission-Blocking Drugs: Hundreds of Molecules Targeting Early Parasite Mosquito Stages” (Frontiers in Microbiology, 2019).
Like-named read-outs stand apart in the source and are kept apart here.

What was measured:
HepG2 cells [1] = assay: HepG2 cytotoxicity assay
How it was run: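 Here viability after a 48 h compound incubation (37°C, humidified 5% CO2) is measured by fluorescence and expressed as percent inhibition, with doxorubicin at 50 μM and DMSO as the bounding controls.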

[2] = system: P. falciparum late stage (stages IV-V) gametocytes; set-up: method as in Almela et al 2016; details: ref Almela et al 2016, read-out: Pf GCT ATP IC50, cited from earlier work
[3] = system: P. falciparum female gametocytes; set-up: method as in Miguel-Blanco et al 2017; details: ref Miguel-Blanco et al 2017, read-out: Pf FGAA IC50, cited from earlier work
HepG2 cells [4] = details: cited from earlier work
[5] = system: P. falciparum female gametocytes; assay: P. falciparum female gametogenesis assay (Pf FGAA); details: 1: YES; 0: NO
[6] = system: P. falciparum late stage (stages IV-V) gametocytes; assay: P. falciparum late stage gametocyte ATP depletion assay (Pf GC-ATP); details: 1: YES; 0: NO
[7] = HepG2 cytotoxicity unified across the three screens
[8] = value reported with the Pf FGAA screen, ref Miguel-Blanco et al 2017
[9] = value reported with the Pf GCT ATP screen, ref Almela et al 2016
[10] = HepG2 values of the three screens unified

Row | Compound | Unified cytotox (HepG2 cells [1]; [7]) | IC50 ([2]; TCAMS screen comparison) | IC50 ([3]; TCAMS screen comparison) | HepG2 cytoxicity (HepG2 cells [4]; [8]) | HepG2 cytoxicity (HepG2 cells [4]; [9]) | Is compound selective in assay? Pf FGAA active? [5] | Is compound selective in assay? Pf GC-ATP active? [6] | Unified cytotox (HepG2 cells [1]; [10]) | IC50 [2] | IC50 [3] | HepG2 cytoxicity (Pf GCT ATP screen) (HepG2 cells [4]; ref Almela et al 2016) | HepG2 cytoxicity (Pf FGAA screen) (HepG2 cells [4]; ref Miguel-Blanco et al 2017)
1 | COc1ccc2c(c1CCNCCCCNCCc1c(OC)ccc3c1CCCC3)CCCC2.CS(=O)(=O)O [TCMDC-137324] | 1.21 µM | 150 nM | 640 nM | 1.68 µM | 0.75 µM | 0 (0: NO) | 0 (0: NO) | – | – | – | – | –
2 | C=CCOc1ccc2ccccc2c1CNCCCCCCNCc1c(OCC=C)ccc2ccccc12.CS(=O)(=O)O [TCMDC-137340] | 1.93 µM | 250 nM | 700 nM | 1.93 µM | <1.56 µM | 0 (0: NO) | 0 (0: NO) | – | – | – | – | –
3 | Cl.c1ccc2c(Nc3ccc(Cc4ccc(Nc5c6ccccc6nc6ccccc56)cc4)cc3)c3ccccc3nc2c1 [TCMDC-137354] | 4.17 µM | 2300 nM | 1040 nM | 3.85 µM | 4.49 µM | 0 (0: NO) | 0 (0: NO) | – | – | – | – | –
4 | Br.C/C=C/C=C/C1=NCCc2cc(OCCC)ccc21 [TCMDC-137442] | 18.64 µM | 750 nM | 1300 nM | 18.29 µM | 19 µM | 1 (1: YES) | 1 (1: YES) | – | – | – | – | –
5 | Cl.N=C(NCCCCC1CCCCC1)c1cccc(C(=N)NCCCCC2CCCCC2)n1 [TCMDC-137452] | 1.71 µM | 220 nM | 1050 nM | 1.82 µM | 1.6 µM | 0 (0: NO) | 0 (0: NO) | – | – | – | – | –
6 | CC(CNC(=N)c1cccc(C(=N)NCC(C)Oc2cccc(C3CCCCC3)c2)n1)Oc1cccc(C2CCCCC2)c1.Cl (stereo not drawn) [TCMDC-137455] | 2.85 µM | 240 nM | 1270 nM | 2.16 µM | 3.53 µM | 0 (0: NO) | 1 (1: YES) | – | – | – | – | –
7 | N=C(NCC1CC1c1ccccc1)c1cccc(C(=N)NCC2CC2c2ccccc2)n1 (stereo not drawn) [TCMDC-137456] | 6.50 µM | 450 nM | 1890 nM | 6.21 µM | 6.8 µM | 0 (0: NO) | 1 (1: YES) | – | – | – | – | –
8 | COc1ccc(CNCCCCCCNCc2ccc(OC)c3ccccc23)c2ccccc12.Cl [TCMDC-137631] | 2.44 µM | 510 nM | 720 nM | 1.82 µM | 3.06 µM | 0 (0: NO) | 0 (0: NO) | – | – | – | – | –
9 | CN1CCN(CCNc2c3ccccc3nc3c2ccc2ccccc23)CC1.Cl [TCMDC-137723] | 5.84 µM | 390 nM | 3490 nM | 5.07 µM | 6.6 µM | 0 (0: NO) | 1 (1: YES) | – | – | – | – | –
10 | COc1ccc2nc(-c3ccccc3)cc(NCCCNc3cc(-c4ccccc4)nc4ccc(OC)cc34)c2c1.Cl [TCMDC-137734] | 38.15 µM | 1210 nM | 5600 nM | 70.79 µM | 5.5 µM | 0 (0: NO) | 1 (1: YES) | – | – | – | – | –
11 | Cl.c1ccc2c(NCCCCCCCCCNc3ccnc4ccccc34)ccnc2c1 [TCMDC-137750] | 2.20 µM | 1030 nM | 850 nM | 1.50 µM | 2.9 µM | 0 (0: NO) | 0 (0: NO) | – | – | – | – | –
12 | Cl.c1ccc2c(NCCCCCCCCNc3ccnc4ccccc34)ccnc2c1 [TCMDC-137751] | 2.44 µM | 1080 nM | 1020 nM | 1.15 µM | 3.74 µM | 0 (0: NO) | 0 (0: NO) | – | – | – | – | –
13 | CS(=O)(=O)O.CSc1ccc2ccccc2c1CCNCCCCNCCc1c(SC)ccc2ccccc12 [TCMDC-137763] | 1.73 µM | 230 nM | 1010 nM | 1.82 µM | 1.65 µM | 0 (0: NO) | 0 (0: NO) | – | – | – | – | –
14 | CC1CCCCN1CCCNc1nc(NCc2ccccc2)c2ccccc2n1 (stereo not drawn) [TCMDC-137771] | 17.35 µM | 140 nM | 7250 nM | 14.62 µM | 20.07 µM | 0 (0: NO) | 1 (1: YES) | – | – | – | – | –
15 | COc1cc2ccccc2c(CNCCCCCCNCc2c(OC)c(OC)cc3ccccc23)c1OC.CS(=O)(=O)O [TCMDC-137795] | 4.66 µM | 1050 nM | 670 nM | 4.62 µM | 4.7 µM | 0 (0: NO) | 0 (0: NO) | – | – | – | – | –
16 | COc1ccc2ccc(OC)c(CNCCCCCCNCc3c(OC)ccc4ccc(OC)cc34)c2c1.CS(=O)(=O)O [TCMDC-137796] | 3.36 µM | 290 nM | 1210 nM | 3.31 µM | 3.4 µM | 0 (0: NO) | 1 (1: YES) | – | – | – | – | –
17 | COc1ccc2cc(CNCCCCCCNCc3ccc4cc(OC)ccc4c3)ccc2c1.CS(=O)(=O)O [TCMDC-137797] | 2.27 µM | 670 nM | 590 nM | 1.55 µM | 3 µM | 0 (0: NO) | 0 (0: NO) | – | – | – | – | –
18 | c1cc(C2=N[C@H]3CCCC[C@@H]3N2)ccc1OCCCOc1ccc(C2=N[C@@H]3CCCC[C@H]3N2)cc1 [TCMDC-137803] | 38.02 µM | 470 nM | 11500 nM | 38.02 µM | >25 µM | 0 (0: NO) | 1 (1: YES) | – | – | – | – | –
19 | CS(=O)(=O)O.FC(F)(F)COc1ccc2ccccc2c1CNCCCCCCNCc1c(OCC(F)(F)F)ccc2ccccc12 [TCMDC-137816] | 2.44 µM | 370 nM | 1090 nM | 1.84 µM | 3.04 µM | 0 (0: NO) | 0 (0: NO) | – | – | – | – | –
20 | COc1c(OC)c(OC)c2ccccc2c1CNCCCCCCNCc1c(OC)c(OC)c(OC)c2ccccc12.Cl [TCMDC-137827] | 3.08 µM | 1150 nM | 1670 nM | 2.95 µM | 3.2 µM | 0 (0: NO) | 0 (0: NO) | – | – | – | – | –
21 | C#CCCOc1ccc2ccccc2c1CNCCCCCCNCc1c(OCCC#C)ccc2ccccc12 [TCMDC-137832] | 5.14 µM | 410 nM | 920 nM | 4.79 µM | 5.5 µM | 0 (0: NO) | 1 (1: YES) | – | – | – | – | –
22 | C#CCOc1ccc2ccccc2c1CNCCCCCCNCc1c(OCC#C)ccc2ccccc12.CS(=O)(=O)O [TCMDC-137838] | 3.05 µM | 500 nM | 1050 nM | 2.92 µM | 3.19 µM | 0 (0: NO) | 0 (0: NO) | – | – | – | – | –
23 | COc1cc2ccccc2c(OC)c1CCNCCCCNCCc1c(OC)cc2ccccc2c1OC.CS(=O)(=O)O [TCMDC-137842] | – | – | – | – | – | 0 (0: NO) | 1 (1: YES) | 3.68 µM | 310 nM | 1240 nM | 3.2 µM | 4.17 µM
24 | CCCCOc1cc(OC)c2ccccc2c1CCNCCCCNCCc1c(OCCCC)cc(OC)c2ccccc12.CS(=O)(=O)O [TCMDC-137845] | – | – | – | – | – | 0 (0: NO) | 0 (0: NO) | 2.49 µM | 500 nM | 760 nM | 3 µM | 1.97 µM
